Values quoted from earlier work in patent US20060127506A1, “Compositions of S-adenosyl-L-methionine” (priority 2004, published 2006).

Key:
[1] = tested on: beta-adrenergic; settings: L-form vs D-enantiomer
[2] = tested on: Other methyltransferases
[3] = tested on: S-adenosyl-L-methionine-dependent methyltransferases
[4] = oral; alcoholic liver cirrhosis; compared with placebo treated group
[5] = tested on: nucleolar 2-O-methyltransferase; settings: (S,S) vs (R,S) diastereomer
[6] = optical purity of 97-100% (Berna et al, US 20020010147)

**Q.** Which “potency of L-form relative to D-enantiomer” value [1] does the source give for `CC(C)NCC(O)COc1cccc2ccccc12` (stereo not drawn) [propranolol] here?
**A.** The value was 100 times.

**Q.** For `C[S@@+](CC[C@@H](N)C(=O)O)C[C@H]1O[C@@H](n2cnc3c(N)ncnc32)[C@H](O)[C@@H]1O` [(R,S)-S-adenosyl-L-methionine], which “extent of binding relative to (S,S)-S-adenosyl-L-methionine” value [2] is on record?
**A.** The value was “to the same extent”.

**Q.** What about the “inhibition of enzyme-catalyzed transmethylation reactions” value [3] of the same molecule?
**A.** The value was “potent inhibitor”.

**Q.** Which “overall mortality and/or progression to liver transplant” value [4] does the source give for `C[S+](CC[C@H](N)C(=O)[O-])C[C@H]1O[C@@H](n2cnc3c(N)ncnc32)[C@H](O)[C@@H]1O` (stereo partly drawn) [S-adenosyl-L-methionine] here?
**A.** The value was 12%.

**Q.** Which results are given for `C[S@@+](CC[C@H](N)C(=O)O)C[C@H]1O[C@@H](n2cnc3c(N)ncnc32)[C@H](O)[C@@H]1O` [(S,S)-S-adenosyl-L-methionine]?
**A.** tightness of enzyme binding relative to (R,S)-S-adenosyl-L-methionine [5]: 10 fold; time for which optical purity is sustained before epimerization begins again [6]: ≤ 4 months
